Data as given in patent US8637045B2, “Therapy for lysosomal enzyme deficiencies” (University of Massachusetts, priority 2004, dated 2014).

How the values were obtained:
[1] = target: T1, β-glucosidase (Mus musculus, UniProt P17439); assay: Gaucher mouse model produced with conduritol beta-epoxide; type: in vivo, mice
T1 construct: from tissue; host or cells: tissues of C57/Bl mice dosed in vivo with CBE
T1 sequence (P17439 20-515): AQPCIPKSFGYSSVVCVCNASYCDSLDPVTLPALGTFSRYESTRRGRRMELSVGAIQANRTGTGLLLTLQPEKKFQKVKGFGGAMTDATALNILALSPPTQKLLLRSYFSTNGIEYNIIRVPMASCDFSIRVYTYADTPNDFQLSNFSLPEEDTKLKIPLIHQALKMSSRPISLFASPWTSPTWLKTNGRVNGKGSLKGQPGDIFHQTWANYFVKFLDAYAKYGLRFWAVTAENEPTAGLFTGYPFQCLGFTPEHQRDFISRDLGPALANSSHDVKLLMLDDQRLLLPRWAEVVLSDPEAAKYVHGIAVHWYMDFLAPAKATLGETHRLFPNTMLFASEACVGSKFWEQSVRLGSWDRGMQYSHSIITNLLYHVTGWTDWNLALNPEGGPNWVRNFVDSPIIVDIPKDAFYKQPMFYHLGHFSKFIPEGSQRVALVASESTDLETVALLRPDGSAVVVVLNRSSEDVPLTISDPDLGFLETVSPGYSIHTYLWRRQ
Method: Two mouse models of Gaucher disease were used. The first Gaucher mouse was produced by injecting C57/Bl mice with 100 mg/kg of conduritol beta-epoxide, (CBE, 7-oxabicyclo[4.1.0]heptane-2,3,4,5-tetrol), intraperitoneally daily for 3 weeks. Three weeks of treatment of 3 month old C57/Bl mice with CBE produced an approximately 50% and 500% increase in the amount of glucosylceramide in systemic tissues and brain, respectively. […] No weight or behavioral differences occurred in 3 month old treated mice. […] Expressed as percentages of total body weight there was no difference for brain, liver, and kidney, but the spleen weight was 60% of control. […] There was a 50% and 300% increase in glucocerebroside in liver tissue and brain, respectively.

[2] = test system: S. aureus; assay: S. aureus killing by J774 murine macrophages loaded with YGP particles; type: cell-based
Method: One ml of murine macrophages, J774 (5×10^5/ml) was combined with YGP, YGP:alginate—tet or tetracycline of various concentration as summarized in Table 6, above.
The J774 cells were cultured overnight in medium (DMEM containing 10% fetal calf serum without antibiotics or glutamine). […] The microbial killing assay was set up in 96 well plates. The cultures were diluted in medium and incubated overnight to allow for metabolism and release of tet from phagocytosed YGP:alginate—tet particles. Bacterial challenge was added as indicated in Table 7 and the cultures were incubated 2 hours at 37 degrees Celsius in a CO2 incubator to permit S. aureus phagocytosis and killing by the J774 murine macrophages. After this incubation, 200 μl LB Broth (Luria-Bertani Broth: 1.0% tryptone, 0.5% yeast extract, 1.0% NaCl) was added to each culture to lyze the macrophages. Cultures were incubated at 37 degrees Celsius in an incubator to permit outgrowth of surviving S. aureus. Growth was monitored by change in pH as indicated by phenol red. The effects of YGP, YGP:alginate—tet or tetracycline were compared.

[3] = 3 month old C57/Bl mice, 100 mg/kg intraperitoneally daily for 3 weeks
[4] = 1 day old infant C57/Bl mice, 100 mg/kg IP daily for 3 weeks

SMILES | increase in the amount of glucosylceramide in brain [1, 3] [%] | increase in the amount of glucosylceramide in systemic tissues [1, 3] | increase in glucocerebroside in brain [1, 4] [%] | increase in glucocerebroside in liver tissue [1, 4] [%] | spleen weight (as percentage of total body weight) [1, 4] | β-glucosidase activity ([1]; C57/Bl mice, 100 mg/kg intraperitoneally daily for 3 weeks) | S. aureus Killed ([2]; with J774, 1.25 μg/ml) | Fold Increased Killing ([2]; with J774, 2.5 μg/ml) | S. aureus Killed ([2]; with J774, 2.5 μg/ml) | S. aureus Killed ([2]; with J774, 5 μg/ml) | S. aureus Killed ([2]; with J774, 10 μg/ml) | Fold Increased Killing ([2]; without J774, 1.25 μg/ml) | S. aureus Killed ([2]; without J774, 1.25 μg/ml) | S. aureus Killed ([2]; without J774, 2.5 μg/ml) | S. aureus Killed ([2]; without J774, 5 μg/ml) | S. aureus Killed ([2]; without J774, 10 μg/ml)
OC1C(O)C(O)C2OC2C1O (stereo not shown) [CBE, 7-oxabicyclo[4.1.0]heptane-2,3,4,5-tetrol] | ~500 | approximately 50% | 300 | 50 | 60 % of control | drastic reduction | – | – | – | – | – | – | – | – | – | –
CN(C)[C@@H]1C(O)=C(C(N)=O)C(=O)[C@@]2(O)C(O)=C3C(=O)c4c(O)cccc4[C@@](C)(O)[C@H]3C[C@@H]12 [tet, tetracycline] | – | – | – | – | – | – | 1 × 10^6 | 3.3 | 1 × 10^7 | >1 × 10^8 | >1 × 10^8 | 1 | 1 × 10^6 | 3.3 × 10^6 | >1 × 10^8 | >1 × 10^8
